Measured values: ChEMBL document CHEMBL5465560, “Selectivity Literature for EUbOPEN Chemogenomic Library” (2024)

Columns and labels:
[1] = target: G protein-coupled receptor kinase 4 (Homo sapiens) (UniProt P32298); assay: Selectivity interaction (KinomeScan (DiscoverX)) EUB0001079a GRK4; settings: at 1 µM
[2] = target: T1, Ephrin type-B receptor 4 (Homo sapiens) (UniProt P54760); assay: Selectivity interaction (KinomeScan (DiscoverX)) EUB0001079a EPHB4; settings: at 1 µM
T1 sequence (whole entry): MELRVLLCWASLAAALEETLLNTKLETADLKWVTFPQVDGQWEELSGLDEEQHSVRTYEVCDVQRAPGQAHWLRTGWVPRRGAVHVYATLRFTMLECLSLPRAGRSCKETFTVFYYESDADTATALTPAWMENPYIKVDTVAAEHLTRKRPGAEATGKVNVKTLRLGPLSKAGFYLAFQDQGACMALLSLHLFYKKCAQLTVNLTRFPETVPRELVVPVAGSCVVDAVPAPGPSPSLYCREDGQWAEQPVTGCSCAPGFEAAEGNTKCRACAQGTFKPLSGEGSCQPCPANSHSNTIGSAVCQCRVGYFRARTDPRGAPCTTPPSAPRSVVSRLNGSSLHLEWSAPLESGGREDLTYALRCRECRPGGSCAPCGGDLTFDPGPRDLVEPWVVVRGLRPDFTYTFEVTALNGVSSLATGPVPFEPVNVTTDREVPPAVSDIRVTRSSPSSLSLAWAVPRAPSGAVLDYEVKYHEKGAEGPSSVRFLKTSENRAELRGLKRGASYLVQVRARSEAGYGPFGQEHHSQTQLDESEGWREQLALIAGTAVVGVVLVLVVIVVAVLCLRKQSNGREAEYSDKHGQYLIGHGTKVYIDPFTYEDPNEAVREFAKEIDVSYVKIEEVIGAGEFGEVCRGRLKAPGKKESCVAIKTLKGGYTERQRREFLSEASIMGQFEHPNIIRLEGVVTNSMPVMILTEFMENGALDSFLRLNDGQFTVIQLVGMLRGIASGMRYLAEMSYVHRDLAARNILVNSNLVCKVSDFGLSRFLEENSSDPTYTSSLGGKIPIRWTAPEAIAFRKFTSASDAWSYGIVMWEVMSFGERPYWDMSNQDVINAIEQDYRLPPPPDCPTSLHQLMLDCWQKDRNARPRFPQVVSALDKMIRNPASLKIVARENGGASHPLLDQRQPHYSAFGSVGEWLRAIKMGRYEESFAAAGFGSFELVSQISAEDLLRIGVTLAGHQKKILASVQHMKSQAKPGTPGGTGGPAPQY

[3] = target: Fibroblast growth factor receptor 4 (Homo sapiens, UniProt P22455); assay: Selectivity interaction (Kinase panel (33PanQinase(R) Activity Assay)) EUB0000877a FGFR4
[4] = target: Serine/threonine-protein kinase WNK3 (Homo sapiens) (UniProt Q9BYP7); assay: Selectivity interaction (ActivX KiNativ screen (kinase selectivity in THP-1 cell lysates)) EUB0000639a WNK3; type: subcellular; settings: lysate
[5] = target: Tyrosine-protein kinase HCK (Homo sapiens) (UniProt P08631); assay: Selectivity interaction (ActivX KiNativ screen (kinase selectivity in THP-1 cell lysates)) EUB0000639a HCK; type: subcellular; settings: lysate, at 5 µM
[6] = target: Maternal embryonic leucine zipper kinase (Homo sapiens) (UniProt Q14680); assay: Selectivity interaction (Ambit KINOMEscan and KiNATiv profiling in Jurkat cells) EUB0000090b MELK; type: cell-based; settings: at 1 µM
[7] = target: Insulin receptor (Homo sapiens, UniProt P06213); assay: Selectivity interaction (KinomeScan (DiscoverX)) EUB0000695a INSR; settings: at 100 nM
[8] = target: T2, Atypical kinase COQ8B, mitochondrial (Homo sapiens) (UniProt Q96D53); assay: Selectivity interaction (KinomeScan (DiscoverX)) EUB0000607a ADCK4; settings: at 10 µM
T2 sequence (whole entry): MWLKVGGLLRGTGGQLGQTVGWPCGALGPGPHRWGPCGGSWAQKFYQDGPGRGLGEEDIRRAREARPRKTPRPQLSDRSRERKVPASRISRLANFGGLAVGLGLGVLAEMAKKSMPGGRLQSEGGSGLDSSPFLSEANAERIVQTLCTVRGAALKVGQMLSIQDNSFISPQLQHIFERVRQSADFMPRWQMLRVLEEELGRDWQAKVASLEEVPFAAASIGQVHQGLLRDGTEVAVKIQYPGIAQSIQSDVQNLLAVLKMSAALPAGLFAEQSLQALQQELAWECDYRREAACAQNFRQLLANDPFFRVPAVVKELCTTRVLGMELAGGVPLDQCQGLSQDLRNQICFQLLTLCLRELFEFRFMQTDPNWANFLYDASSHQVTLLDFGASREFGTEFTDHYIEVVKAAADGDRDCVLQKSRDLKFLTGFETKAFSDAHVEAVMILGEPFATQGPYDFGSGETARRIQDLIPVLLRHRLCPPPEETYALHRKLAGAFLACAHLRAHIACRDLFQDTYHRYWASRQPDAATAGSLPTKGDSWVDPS

[9] = target: T3, Serine/threonine-protein kinase greatwall (Homo sapiens) (UniProt Q96GX5); assay: Selectivity interaction (LanthaScreen Eu Kinase Binding Assay) EUB0001632a MASTL; settings: at 10 µM
T3 sequence (whole entry): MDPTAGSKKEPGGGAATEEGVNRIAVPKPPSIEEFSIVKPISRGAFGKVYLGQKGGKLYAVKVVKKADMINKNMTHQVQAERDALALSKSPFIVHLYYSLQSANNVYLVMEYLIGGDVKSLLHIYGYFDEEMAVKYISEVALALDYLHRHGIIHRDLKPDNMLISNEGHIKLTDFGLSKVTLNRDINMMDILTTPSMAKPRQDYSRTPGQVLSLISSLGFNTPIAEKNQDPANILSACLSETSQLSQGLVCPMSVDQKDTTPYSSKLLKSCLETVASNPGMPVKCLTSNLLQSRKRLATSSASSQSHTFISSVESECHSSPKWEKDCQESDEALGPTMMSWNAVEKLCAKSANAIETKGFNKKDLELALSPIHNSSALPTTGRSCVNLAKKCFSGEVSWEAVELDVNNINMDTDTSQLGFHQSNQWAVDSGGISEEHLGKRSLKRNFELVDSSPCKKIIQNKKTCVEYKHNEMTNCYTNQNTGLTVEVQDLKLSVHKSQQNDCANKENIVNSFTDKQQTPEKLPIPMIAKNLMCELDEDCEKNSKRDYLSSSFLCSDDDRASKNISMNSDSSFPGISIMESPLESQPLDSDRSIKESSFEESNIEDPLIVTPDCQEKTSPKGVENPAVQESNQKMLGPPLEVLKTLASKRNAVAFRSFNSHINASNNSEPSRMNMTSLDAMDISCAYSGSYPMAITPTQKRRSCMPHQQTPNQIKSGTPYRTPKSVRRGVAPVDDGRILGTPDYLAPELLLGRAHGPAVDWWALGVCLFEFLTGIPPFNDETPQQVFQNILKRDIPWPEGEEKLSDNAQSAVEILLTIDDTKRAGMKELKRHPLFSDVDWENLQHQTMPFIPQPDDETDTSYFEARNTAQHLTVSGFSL

Chain of Serine/threonine-protein kinase WNK3 (Homo sapiens) (Q9BYP7 whole entry): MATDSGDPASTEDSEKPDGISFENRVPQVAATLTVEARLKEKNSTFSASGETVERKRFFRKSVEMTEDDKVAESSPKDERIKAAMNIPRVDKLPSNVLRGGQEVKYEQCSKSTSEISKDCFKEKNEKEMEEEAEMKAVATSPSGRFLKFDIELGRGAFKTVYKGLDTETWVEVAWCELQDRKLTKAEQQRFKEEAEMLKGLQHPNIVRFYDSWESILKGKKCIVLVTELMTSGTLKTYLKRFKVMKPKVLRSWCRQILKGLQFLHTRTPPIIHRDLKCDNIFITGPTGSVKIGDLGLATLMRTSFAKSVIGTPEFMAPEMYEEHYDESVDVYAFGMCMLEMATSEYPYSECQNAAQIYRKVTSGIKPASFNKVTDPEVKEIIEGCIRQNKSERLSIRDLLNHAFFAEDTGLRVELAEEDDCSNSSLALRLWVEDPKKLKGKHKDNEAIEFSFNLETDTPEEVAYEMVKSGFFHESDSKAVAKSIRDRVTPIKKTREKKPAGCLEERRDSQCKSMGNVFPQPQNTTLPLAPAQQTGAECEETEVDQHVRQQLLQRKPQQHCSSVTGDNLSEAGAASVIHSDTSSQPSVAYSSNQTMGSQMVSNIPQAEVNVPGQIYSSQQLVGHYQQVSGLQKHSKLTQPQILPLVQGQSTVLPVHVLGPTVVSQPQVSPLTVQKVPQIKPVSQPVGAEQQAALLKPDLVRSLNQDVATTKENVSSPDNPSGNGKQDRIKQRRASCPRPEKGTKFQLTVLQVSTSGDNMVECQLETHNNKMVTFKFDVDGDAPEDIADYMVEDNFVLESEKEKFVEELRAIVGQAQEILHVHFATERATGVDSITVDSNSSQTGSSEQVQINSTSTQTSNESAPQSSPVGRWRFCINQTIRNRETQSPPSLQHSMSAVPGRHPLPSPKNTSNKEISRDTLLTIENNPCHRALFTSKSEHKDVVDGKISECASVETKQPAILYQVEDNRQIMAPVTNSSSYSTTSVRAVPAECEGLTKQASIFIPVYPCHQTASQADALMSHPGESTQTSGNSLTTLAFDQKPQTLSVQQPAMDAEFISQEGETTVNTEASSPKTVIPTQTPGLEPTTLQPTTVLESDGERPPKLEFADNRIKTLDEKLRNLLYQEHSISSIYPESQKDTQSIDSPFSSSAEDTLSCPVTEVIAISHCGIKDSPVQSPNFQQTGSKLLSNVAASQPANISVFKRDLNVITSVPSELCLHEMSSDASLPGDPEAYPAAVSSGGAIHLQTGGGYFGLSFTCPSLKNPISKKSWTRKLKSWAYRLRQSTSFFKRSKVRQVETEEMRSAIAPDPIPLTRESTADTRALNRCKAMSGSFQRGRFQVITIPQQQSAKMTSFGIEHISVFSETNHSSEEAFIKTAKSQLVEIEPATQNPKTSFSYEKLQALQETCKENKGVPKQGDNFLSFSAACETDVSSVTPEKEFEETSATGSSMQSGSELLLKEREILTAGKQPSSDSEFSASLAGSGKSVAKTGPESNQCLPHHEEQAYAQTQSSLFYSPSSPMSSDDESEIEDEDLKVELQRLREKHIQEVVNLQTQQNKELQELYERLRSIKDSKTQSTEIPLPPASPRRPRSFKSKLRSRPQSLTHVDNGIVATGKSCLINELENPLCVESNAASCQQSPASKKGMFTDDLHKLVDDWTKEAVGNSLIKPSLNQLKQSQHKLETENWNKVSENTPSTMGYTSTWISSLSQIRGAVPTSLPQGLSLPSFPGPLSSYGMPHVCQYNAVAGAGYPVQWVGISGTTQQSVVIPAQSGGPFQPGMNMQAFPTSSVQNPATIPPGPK
Chain of Tyrosine-protein kinase HCK (Homo sapiens) (P08631 2-526 limits assumed): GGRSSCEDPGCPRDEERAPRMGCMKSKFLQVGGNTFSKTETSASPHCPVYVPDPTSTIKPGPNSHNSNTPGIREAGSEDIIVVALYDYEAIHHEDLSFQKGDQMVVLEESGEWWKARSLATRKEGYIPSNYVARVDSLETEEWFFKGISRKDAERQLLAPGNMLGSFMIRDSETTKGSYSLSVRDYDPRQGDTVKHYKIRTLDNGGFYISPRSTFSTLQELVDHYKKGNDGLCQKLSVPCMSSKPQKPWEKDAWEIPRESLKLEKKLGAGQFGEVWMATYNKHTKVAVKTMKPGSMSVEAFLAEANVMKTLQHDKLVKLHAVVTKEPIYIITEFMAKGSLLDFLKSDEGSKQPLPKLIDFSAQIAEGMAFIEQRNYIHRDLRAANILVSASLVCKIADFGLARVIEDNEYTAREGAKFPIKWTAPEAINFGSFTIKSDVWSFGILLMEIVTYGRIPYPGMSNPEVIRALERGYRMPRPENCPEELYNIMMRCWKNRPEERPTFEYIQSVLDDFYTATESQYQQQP
Chain of Fibroblast growth factor receptor 4 (P22455 whole entry): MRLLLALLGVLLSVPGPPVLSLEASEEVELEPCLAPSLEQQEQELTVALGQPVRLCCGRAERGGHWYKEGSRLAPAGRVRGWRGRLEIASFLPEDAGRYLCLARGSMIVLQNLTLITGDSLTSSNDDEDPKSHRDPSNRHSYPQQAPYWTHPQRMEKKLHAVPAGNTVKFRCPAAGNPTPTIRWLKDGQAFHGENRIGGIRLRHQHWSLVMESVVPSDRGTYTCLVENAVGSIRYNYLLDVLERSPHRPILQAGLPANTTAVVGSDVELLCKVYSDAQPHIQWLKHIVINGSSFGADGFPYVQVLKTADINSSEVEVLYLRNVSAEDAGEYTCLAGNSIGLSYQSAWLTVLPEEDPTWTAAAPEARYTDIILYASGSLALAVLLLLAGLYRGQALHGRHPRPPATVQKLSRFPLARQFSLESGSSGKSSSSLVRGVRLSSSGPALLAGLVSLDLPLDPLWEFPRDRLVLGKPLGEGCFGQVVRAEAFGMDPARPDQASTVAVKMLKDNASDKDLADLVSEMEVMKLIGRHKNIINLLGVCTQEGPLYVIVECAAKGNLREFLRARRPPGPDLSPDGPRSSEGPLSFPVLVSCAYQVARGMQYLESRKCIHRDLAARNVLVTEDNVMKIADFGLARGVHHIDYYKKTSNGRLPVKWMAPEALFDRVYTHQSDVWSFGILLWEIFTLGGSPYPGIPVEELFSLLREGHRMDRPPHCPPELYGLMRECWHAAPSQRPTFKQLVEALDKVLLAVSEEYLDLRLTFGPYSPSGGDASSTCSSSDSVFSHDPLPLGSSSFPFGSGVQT
Chain of Maternal embryonic leucine zipper kinase (Homo sapiens) (Q14680 whole entry, looked up): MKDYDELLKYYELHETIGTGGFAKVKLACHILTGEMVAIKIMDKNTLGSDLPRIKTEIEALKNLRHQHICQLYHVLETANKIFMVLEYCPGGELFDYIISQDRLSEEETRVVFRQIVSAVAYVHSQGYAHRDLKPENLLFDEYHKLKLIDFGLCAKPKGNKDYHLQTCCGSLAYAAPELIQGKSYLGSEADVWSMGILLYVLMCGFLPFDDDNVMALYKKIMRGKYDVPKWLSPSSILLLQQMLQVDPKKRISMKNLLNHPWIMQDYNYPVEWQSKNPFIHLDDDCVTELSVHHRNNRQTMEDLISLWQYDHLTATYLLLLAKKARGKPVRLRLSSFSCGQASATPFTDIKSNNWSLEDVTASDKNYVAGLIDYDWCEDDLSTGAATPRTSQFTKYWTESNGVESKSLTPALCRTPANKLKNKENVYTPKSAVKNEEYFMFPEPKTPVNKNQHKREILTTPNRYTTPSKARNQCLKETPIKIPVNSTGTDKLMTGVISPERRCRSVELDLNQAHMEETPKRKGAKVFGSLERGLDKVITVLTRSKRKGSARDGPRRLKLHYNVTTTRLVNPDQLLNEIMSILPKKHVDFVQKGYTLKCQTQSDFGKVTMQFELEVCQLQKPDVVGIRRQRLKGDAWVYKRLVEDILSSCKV
Chain of G protein-coupled receptor kinase 4 (Homo sapiens) (P32298 whole entry, looked up): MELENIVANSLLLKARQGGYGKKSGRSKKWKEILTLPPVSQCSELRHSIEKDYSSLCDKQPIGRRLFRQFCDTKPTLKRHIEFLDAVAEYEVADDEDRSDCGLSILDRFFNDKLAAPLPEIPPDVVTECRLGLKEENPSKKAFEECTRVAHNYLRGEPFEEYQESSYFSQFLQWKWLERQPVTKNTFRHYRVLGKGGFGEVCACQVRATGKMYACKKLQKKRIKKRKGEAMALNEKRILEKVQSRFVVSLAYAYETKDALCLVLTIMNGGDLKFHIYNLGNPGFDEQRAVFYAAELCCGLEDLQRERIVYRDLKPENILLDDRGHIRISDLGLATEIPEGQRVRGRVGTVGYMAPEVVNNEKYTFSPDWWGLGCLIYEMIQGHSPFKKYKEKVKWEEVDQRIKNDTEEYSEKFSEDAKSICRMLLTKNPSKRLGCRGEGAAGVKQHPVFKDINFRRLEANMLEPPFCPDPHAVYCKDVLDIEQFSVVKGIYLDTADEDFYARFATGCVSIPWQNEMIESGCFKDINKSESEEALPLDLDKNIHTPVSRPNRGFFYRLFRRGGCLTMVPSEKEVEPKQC

`Nc1cnc(N2CCc3cc(S(=O)(=O)Nc4c(F)cc(Cl)cc4F)cc(N4CCCC4=O)c32)nc1` [TP-020n] was tested, and the % of control [1] was 100% and the % of control [2] was 100%.
With `CCC(=O)N1CC[C@H](Nc2ncnc3c2CN(c2cnc(OC)c(C(F)(F)F)c2)CC3)C1` [LENIOLISIB] the IC50 [3] was over 10 µM.
`CC[C@@H]1[C@H](F)C(=O)N[C@@H]1COc1nccc2cc(C(N)=O)c(OC)cc12` [ZIMLOVISERTIB] showed a % of inhibition ([4]; at 0.01 µM) of 3.3%, a % of inhibition ([4]; at 0.04 µM) of -7.4% and a % of inhibition ([4]; at 0.2 µM) of -12%. The % of inhibition ([4]; at 1 µM) was -7.7%, the % of inhibition ([4]; at 5 µM) was -14.5% and the % of inhibition [5] was -20.3%.
Molecule `CN(C)C/C=C/C(=O)Nc1ccc(C(=O)N2CCCC(Nc3ncc(Cl)c(-c4c[nH]c5ccccc45)n3)C2)cc1` (stereo not drawn) has a % of control [6] of 75%.
In the case of `Cc1cc(F)c(C(=O)Nc2cccc(-c3nncn3C(C)C)n2)cc1-n1cnc(C2CC2)c1`, the % of control [7] is reported as 100%.
With `CNC(=O)Nc1ccc(-c2nc(N3CC4CCC(C3)O4)c3cnn(C4CCC5(CC4)OCCO5)c3n2)cc1` the % of control [8] was 100%.
In the case of `Cn1cc(-n2cnc3c(NCc4nc5cc(Cl)c(Cl)cc5[nH]4)nc(N4CCOCC4)nc32)cn1`, the % of inhibition [9] is reported as -42%.
